Values of other authors in paper PMC11585628 (Nature Communications, 2024).

System: SARS-CoV-2
Details: read-out: EC50 for antiviral effects

Question: Which EC50 does the source give for XR8-24 here?
Answer: 1200 nM
